According to BindingDB's records for doi:10.1016/S0960-894X(01)80901-X (1993):

Biological target: Neuromedin-K/NK2 receptor (tachykinin receptor 2), Rattus norvegicus
Experiment: Tested in vitro to inhibit the binding of [125I]NKA to its receptor in rat duodenum membrane

Ki: 0.51 nM
SMILES: CC(=O)NC1(c2ccccc2)CCN(CC[C@H](CN(C)C(=O)c2ccccc2)c2ccc(Cl)c(Cl)c2)CC1 [N-[(R)-4-(4-Acetylamino-4-phenyl-piperidin-1-yl)-2-(3,4-dichloro-phenyl)-butyl]-N-methyl-benzamide]
